Measurements: patent US11938121B2, “Treatment of infections and biofilm formation using a cellulose synthase inhibitor” (Purdue Research Foundation, priority 2020, dated 2024)

Key:
maize (Zea mays) = assay: Maize seedling root growth; type: in vivo; conditions: 20 μM
From the text: ES20 has broad spectrum inhibitory effect on the growth of both dicotyledonous and monocotyledonous plants (Huang and Zhang, Plant Signal Behav. 2020, 15, 1780039). We tested whether ES20-1 has stronger inhibitory effect on the growth of monocotyledon plants than ES20. We grew rice (Oryza sativa) and maize (Zea mays) seedlings on the same concentrations of ES20 and ES20-1 and compared their effects on growth.

[1] = target: T1, YFP-AtCESA6 cellulose synthase complexes (CSCs) in root epidermal cells (Arabidopsis thaliana, UniProt Q94JQ6); assay: Spinning-disk confocal live-cell imaging of CSC trafficking; type: cell-based; conditions: 6 μM
T1 construct: expressed in transfected cells; host or cells: transgenic Arabidopsis thaliana YFP-AtCESA6 seedlings (total protein extract for DARTS; root epidermal cells for imaging)
Protocol: For SDCM live cell imaging, seedlings were grown vertically for 5 d, and images were taken from the 2nd or 3rd epidermal cell below the first obvious root hair in the root elongation zone. Two thin strips of double-sided adhesive tape were placed on top of glass slides approximately 2 cm apart. 100 μl of ½-strength MS liquid growth medium containing 0.1% DMSO or 6 μM of ES20-1 was applied to the slide, and seedlings were mounted in the liquid medium. A 22×40 mm cover glass was placed on top of the double-sided tape for imaging. For longer term imaging during CESA velocity analysis, seedlings were mounted on a piece of 1-mm thick 0.6% Phytagel pad affixed to the glass slide to minimize compression and liquid evaporation.
To examine the cellular localization of YFP-AtCESA6 and YFP-AtCESA6; ManI-CFP, SDCM imaging was performed using a CSU-X1-A1 Yokogawa scanning unit mounted on an Olympus IX-83 microscope equipped with a 100×/1.4NA UPlanSApo oil objective (Olympus) and an Andor iXon Ultra 897BV EMCCD camera (Andor Technology). YFP and CFP fluorescence was excited with 515-nm and 445-nm laser lines and emission collected through 542/27-nm and 479/40-nm filters, respectively.
For fluorescence recovery after photobleaching (FRAP) experiments, images were collected using a Zeiss Observer Z.1 microscope, equipped with a Yokogawa CSU-X1 head and a 100×/1.46 NA PlanApo objective (Zeiss). For the PM-localized CESA6 FRAP, photobleaching was performed with a Vector scanner (Intelligent Imaging Innovations) with a 515-nm laser line at 100% power and 1 ms/scan. Timelapse images were collected at the PM with a 10-s interval for 64 frames, with photobleaching in a small region (44.2 μm^2) after the 4th frame, and recovery for total 10 min.
Image analysis was performed using ImageJ. For CESA particle density analyses, regions of interest (ROIs) without abundant Golgi signals were chosen using the Freehand selection tool. CESA particles were detected automatically on 8-bit images using the Find Maxima tool with the same noise threshold for all images. CESA particle density for each ROI was calculated by dividing the number of particles by the ROI area. To analyze CESA particle dynamics, 5-min time-lapse series with 5-s intervals were collected. Average intensity projections were generated to identify the trajectories of CSC particles. Image drift was corrected using the StackReg plugin (Thevenaz et al., 1998). Kymographs were generated, and the velocities of CESA particles were measured as the reciprocal of the slope of individual CESA particles in the kymographs. To quantify cortical vesicles, 1 μm z-series stack with 0.2 μm as the step size and 20-s time-lapses were collected. The focal plane at 0.4 μm below the PM was used for cortical SmaCC analysis. Small particles showing motility in time-lapse series were considered to be SmaCCs. For the FRAP assay of PM-localized CSCs, a smaller area (16 μm^2) within the bleached region was used for analyses. The CSC delivery events during the first 5 min of recovery were manually counted according to the criteria described previously (Li et al., Proc. Natl. Acad Sci. USA, 2016, 113, 11348-11353). […] The CSC delivery rate was calculated by dividing the number of delivery events by the measured area and time.

Komagataeibacter xylinus = assay: K. xylinus cellulose production in liquid culture; type: cell-based; conditions: 20 μM
From the text: We next grew K. xylinus cells in growth medium supplemented with DMSO, ES20, or ES20-1 under agitation. […] We also grew K. xylinus in liquid medium supplemented with DMSO, ES20, or ES20-1 under static cultivation conditions. Without agitation, pellicles containing cellulose often form at the air-liquid interface. […] To quantify the effects of ES20 and ES20-1 on cellulose production, we harvested the pellicles from these cultures and isolated cellulose from the pellicles.
Komagataeibacter xylinus (previously named Gluconacetobacter xylinus) ATCC strain 700178 was obtained from ATCC (Manassas, Va., USA) to evaluate cellulose production. HS (Hestrin and Schramm) medium was used for culture; HS liquid medium contains 2.0% glucose (w/v), 0.5% yeast extract (w/v), 0.5% peptone (w/v), 0.27% Na2HPO4 (w/v), and 0.15% citric acid (w/v), pH 5.0, and HS solid medium was solidified with 1.8% agar (w/v). To prepare the initial inoculation source, a single K. xylinus colony grown on HS solid medium was transferred to HS liquid medium and cultured at 26° C. for 5 days under static conditions. We used cells from the bottom of the liquid culture as the initial inoculation source to avoid biofilm aggregates at the air-liquid interface. To test the effect of ES20 and ES20-1 on the bacteria growth, initial inoculation source was series diluted and 20 μL culture from each diluted solution was dropped on HS solid medium supplemented with DMSO (0.1%) or different concentrations of ES20 and ES20-1 and cultured at 26° C. for 6 days after the dropped culture was completely dry. To test the effects of ES20 and ES20-1 on cellulose production, the prepared inoculation source was inoculated at a dilution ratio of 1:1000 dilution in HS liquid medium supplemented with 0.1% DMSO or 20 μM of ES20 or ES20-1. Static cultivation was carried out in a 26° C. incubator, and agitated cultivation was carried out at 26° C. with shaking at 220 rpm. To isolate cellulose from pellicles, the pellicles were removed from liquid culture, washed several times with deionized water, and soaked in 0.1 M NaOH at 80° C. for 2 h. The pellicles were washed several times with deionized water to completely remove the alkali. The purified cellulose was dried at 60° C. for ˜1 day until a constant dry mass was reached.

[2] = 5 days static cultivation, vs DMSO

T1 sequence (O48946 whole entry): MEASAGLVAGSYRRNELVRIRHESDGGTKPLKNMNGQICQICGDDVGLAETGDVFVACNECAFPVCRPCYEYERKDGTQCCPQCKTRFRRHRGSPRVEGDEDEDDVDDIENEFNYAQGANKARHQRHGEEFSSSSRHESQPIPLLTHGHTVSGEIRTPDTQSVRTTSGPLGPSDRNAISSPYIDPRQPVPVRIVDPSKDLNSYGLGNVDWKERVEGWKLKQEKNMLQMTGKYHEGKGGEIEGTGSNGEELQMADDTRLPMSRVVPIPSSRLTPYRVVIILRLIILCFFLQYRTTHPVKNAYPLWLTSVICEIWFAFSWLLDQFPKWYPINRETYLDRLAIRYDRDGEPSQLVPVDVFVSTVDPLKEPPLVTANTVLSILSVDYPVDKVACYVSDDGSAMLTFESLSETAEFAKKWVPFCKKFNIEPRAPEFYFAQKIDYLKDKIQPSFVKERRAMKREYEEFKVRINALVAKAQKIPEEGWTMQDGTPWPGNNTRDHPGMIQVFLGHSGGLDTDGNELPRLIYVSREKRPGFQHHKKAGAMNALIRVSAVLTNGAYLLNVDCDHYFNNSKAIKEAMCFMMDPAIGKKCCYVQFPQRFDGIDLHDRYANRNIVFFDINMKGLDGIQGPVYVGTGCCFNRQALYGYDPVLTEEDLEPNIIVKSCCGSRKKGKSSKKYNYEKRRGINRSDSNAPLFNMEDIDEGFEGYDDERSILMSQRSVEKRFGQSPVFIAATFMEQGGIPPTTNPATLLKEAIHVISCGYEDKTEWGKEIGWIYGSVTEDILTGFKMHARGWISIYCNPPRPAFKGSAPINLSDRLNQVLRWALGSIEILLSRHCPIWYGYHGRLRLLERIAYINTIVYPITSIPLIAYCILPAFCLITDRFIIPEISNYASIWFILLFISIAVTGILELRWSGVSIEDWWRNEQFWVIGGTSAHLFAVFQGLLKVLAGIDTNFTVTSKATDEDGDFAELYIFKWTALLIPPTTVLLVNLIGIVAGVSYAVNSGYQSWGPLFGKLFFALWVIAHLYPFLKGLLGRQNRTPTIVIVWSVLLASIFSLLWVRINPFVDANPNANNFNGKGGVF
T1 sequence (Q941L0 whole entry, further chain): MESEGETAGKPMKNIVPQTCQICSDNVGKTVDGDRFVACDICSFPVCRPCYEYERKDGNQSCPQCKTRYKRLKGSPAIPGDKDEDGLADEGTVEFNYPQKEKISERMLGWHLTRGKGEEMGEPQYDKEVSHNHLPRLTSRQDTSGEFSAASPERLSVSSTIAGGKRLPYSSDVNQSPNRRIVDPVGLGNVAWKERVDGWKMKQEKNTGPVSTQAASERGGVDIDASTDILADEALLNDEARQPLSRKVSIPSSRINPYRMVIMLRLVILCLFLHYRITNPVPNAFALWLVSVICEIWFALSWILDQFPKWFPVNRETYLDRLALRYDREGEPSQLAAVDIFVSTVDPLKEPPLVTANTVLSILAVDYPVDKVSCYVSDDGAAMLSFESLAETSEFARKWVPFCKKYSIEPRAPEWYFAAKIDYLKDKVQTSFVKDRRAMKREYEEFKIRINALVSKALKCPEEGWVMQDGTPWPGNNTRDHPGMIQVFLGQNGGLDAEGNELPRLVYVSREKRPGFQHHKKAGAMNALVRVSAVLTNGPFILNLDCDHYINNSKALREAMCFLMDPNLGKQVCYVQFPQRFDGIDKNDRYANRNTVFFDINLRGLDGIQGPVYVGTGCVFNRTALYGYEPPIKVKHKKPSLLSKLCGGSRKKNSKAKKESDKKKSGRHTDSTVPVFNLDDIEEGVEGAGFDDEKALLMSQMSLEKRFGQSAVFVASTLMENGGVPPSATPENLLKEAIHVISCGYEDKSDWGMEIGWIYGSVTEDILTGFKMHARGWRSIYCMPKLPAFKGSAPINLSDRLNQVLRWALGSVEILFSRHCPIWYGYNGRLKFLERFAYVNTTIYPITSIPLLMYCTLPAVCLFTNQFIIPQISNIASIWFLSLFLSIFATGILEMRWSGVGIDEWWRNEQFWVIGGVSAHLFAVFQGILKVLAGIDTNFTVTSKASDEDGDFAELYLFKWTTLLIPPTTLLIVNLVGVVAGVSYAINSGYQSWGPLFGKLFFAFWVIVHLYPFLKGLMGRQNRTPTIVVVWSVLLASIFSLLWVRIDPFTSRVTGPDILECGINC
T1 sequence (Q94JQ6 whole entry): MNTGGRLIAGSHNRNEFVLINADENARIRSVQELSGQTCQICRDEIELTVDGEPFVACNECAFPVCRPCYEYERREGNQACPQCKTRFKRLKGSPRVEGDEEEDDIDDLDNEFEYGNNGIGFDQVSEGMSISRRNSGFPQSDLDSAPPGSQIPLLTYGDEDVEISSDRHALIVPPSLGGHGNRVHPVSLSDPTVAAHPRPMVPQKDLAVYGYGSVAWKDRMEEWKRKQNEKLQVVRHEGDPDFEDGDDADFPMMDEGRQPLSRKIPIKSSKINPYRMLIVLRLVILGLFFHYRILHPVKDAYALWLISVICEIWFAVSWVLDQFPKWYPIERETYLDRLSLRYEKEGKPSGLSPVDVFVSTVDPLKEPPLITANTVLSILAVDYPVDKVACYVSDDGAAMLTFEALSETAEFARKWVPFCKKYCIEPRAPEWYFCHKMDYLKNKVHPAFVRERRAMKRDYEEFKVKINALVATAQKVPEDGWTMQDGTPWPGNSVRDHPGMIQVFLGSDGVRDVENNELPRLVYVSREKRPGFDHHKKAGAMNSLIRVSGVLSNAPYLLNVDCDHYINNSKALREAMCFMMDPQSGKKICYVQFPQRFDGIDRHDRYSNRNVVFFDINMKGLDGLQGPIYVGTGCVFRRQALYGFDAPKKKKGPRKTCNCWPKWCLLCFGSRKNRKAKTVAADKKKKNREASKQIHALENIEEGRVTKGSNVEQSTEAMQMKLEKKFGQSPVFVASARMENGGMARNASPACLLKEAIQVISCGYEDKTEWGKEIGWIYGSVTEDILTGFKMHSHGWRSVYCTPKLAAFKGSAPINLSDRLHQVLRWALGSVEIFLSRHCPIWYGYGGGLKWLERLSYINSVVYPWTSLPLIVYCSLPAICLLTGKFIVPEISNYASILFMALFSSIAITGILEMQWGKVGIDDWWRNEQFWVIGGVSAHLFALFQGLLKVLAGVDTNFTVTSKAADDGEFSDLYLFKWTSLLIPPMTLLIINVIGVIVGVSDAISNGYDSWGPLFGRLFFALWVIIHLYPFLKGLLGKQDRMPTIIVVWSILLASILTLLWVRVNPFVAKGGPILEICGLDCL

**Q.** How did the “maize root growth inhibition” value (maize (Zea mays); 6-day-old seedlings) turn out when Cc1ccccc1C(=O)NNC(=S)NC(=O)c1ccccc1 [ES20-1] was run?
**A.** could inhibit the root growth

**Q.** What about the “degree of maize root growth inhibition compared with ES20” value (maize (Zea mays); same dosage) of the same compound?
**A.** much stronger than that of the same dosage of ES20

**Q.** And the “reduction of CSC delivery rate to PM (FRAP)” value ([1]; 5 min recovery after photobleaching, vs DMSO)?
**A.** ~35%

**Q.** What about the “CSC delivery rate to PM (FRAP)” value ([1]; 5 min recovery, mean±SE, n=10 cells) of the same compound?
**A.** 1.41±0.19 particle/μm^2/h

**Q.** What about the “abundance of cortical SmaCCs” value ([1]; 10 min, mean±SE, n=24 cells) of the same compound?
**A.** 7.07±0.34 particle/100 μm^2

**Q.** And the “abundance (density) of CSCs at the PM” value ([1]; 10 min, mean±SE, n=32 cells)?
**A.** 0.64±0.03 particle/μm^2

**Q.** What about the “decrease of abundance of CSCs at the PM” value ([1]; 10 min, vs DMSO) of the same compound?
**A.** ~30%

**Q.** And the “increase of abundance of cortical SmaCCs” value ([1]; 10 min, vs DMSO)?
**A.** ~30%

**Q.** And the “velocity of CSC particles at the PM” value ([1]; 30 min, mean±SE, n=325)?
**A.** 0.152 ± 0.005 ×10⁻⁶ cm/s

**Q.** What about the “decrease of velocity of CSC particles at the PM” value ([1]; 30 min, vs DMSO) of the same compound?
**A.** ~35%

**Q.** What about the “integrated fluorescence intensity of Golgi-localized YFP-AtCESA6” value ([1]; 1 h, mean±SE, n=55) of the same compound?
**A.** 8684.50±535.60

**Q.** What about the “integrated fluorescence intensity of ManI-CFP” value ([1]; 1 h, same cell) of the same compound?
**A.** not affected

**Q.** And the “increase of integrated fluorescence intensity of Golgi-localized YFP-AtCESA6” value ([1]; 1 h, vs DMSO)?
**A.** more than 25%

**Q.** And the “size of cellulose clusters” value (Komagataeibacter xylinus; 5 days agitated cultivation, vs DMSO)?
**A.** smaller

**Q.** What about the “dry mass of cellulose from pellicles” value (Komagataeibacter xylinus; 5 days static cultivation, mean±SD, n=9) of the same compound?
**A.** 346 ± 152 mg/L

**Q.** What about the “decrease of dry mass of cellulose from pellicles” value (Komagataeibacter xylinus; [2]) of the same compound?
**A.** ~30%

**Q.** What about the pellicle thickness (Komagataeibacter xylinus; [2]) of the same compound?
**A.** pellicles in cultures containing DMSO are thicker
